For data set [1] the following is noted: for mass density: 298.15 K, 101.33 kPa.
A short description of data set [2]: refractive index (Na D-line) (dimensionless). The following applies: 298.15 K; 101.33 kPa; Liquid.

The structures appear in SMILES notation. Numbers after ± are expanded uncertainties.

As to `CC(C)O` [propan-2-ol], the mass density in data set [1] (Liquid) was found to be 781.3 ± 2 kg/m3. For the same compound, the “vapor or sublimation pressure” value amounted to 95.23 ± 4.8 kPa in data set [1] (353.95 K, Liquid) and 95.76 ± 4.8 kPa in data set [1] (354.05 K, Liquid). In data set [2], the refractive index stood at 1.3752 ± 0.001.

Consider `CCO` [ethanol], for which the mass density in data set [1] (Liquid) stood at 784.9 ± 2 kg/m3. The “vapor or sublimation pressure” value in data set [1] (349.95 K, Liquid) was found to be 95.23 ± 4.8 kPa; in data set [1] (350.05 K, Liquid) it was 95.76 ± 4.8 kPa. Further, in data set [2], the refractive index came to 1.3594 ± 0.001.

Take `Cc1ccccc1O` [2-methylphenol]: the mass density in data set [1] (Liquid) amounted to 1046 ± 2.9 kg/m3. Also, the “vapor or sublimation pressure” value in data set [1] (461.85 K, Liquid) is 95.76 ± 4.8 kPa. Moreover, the refractive index in data set [2] was 1.5468 ± 0.001.

In the case of `CCCCO` [butan-1-ol], the mass density in data set [1] (Liquid) came to 805.8 ± 2.1 kg/m3. In addition, the “vapor or sublimation pressure” value worked out at 95.76 ± 4.8 kPa in data set [1] (389.45 K, Liquid) and 95.23 ± 4.8 kPa in data set [1] (391.55 K, Liquid). Moreover, in data set [2], the refractive index came to 1.3974 ± 0.001.

With `Cc1ccc(O)cc1` [4-methylphenol], the mass density in data set [1] (Crystal) worked out at 1155 ± 4 kg/m3. Besides, in data set [1] (472.85 K, Liquid), the “vapor or sublimation pressure” value is 95.23 ± 4.8 kPa. The refractive index in data set [2] was determined as 1.539 ± 0.001.

`CO` [methanol]: the mass density in data set [1] (Liquid) amounted to 786.4 ± 2 kg/m3. Also, the “vapor or sublimation pressure” value in data set [1] (336.15 K, Liquid) stood at 95.23 ± 4.8 kPa; in data set [1] (336.35 K, Liquid) it was 95.76 ± 4.8 kPa. In addition, the refractive index in data set [2] was 1.3265 ± 0.001.

As to `CCCO` [propan-1-ol], the mass density in data set [1] (Liquid) is given as 799.6 ± 2.2 kg/m3. Moreover, the “vapor or sublimation pressure” value came out at 95.23 ± 4.8 kPa in data set [1] (368.85 K, Liquid) and 95.76 ± 4.8 kPa in data set [1] (368.95 K, Liquid). Further, the refractive index in data set [2] was determined as 1.3837 ± 0.0008.

Take `CC(C)CO` [2-methyl-1-propanol]: in data set [1] (Liquid), the mass density stood at 797.8 ± 2 kg/m3. Also, the “vapor or sublimation pressure” value in data set [1] (379.55 K, Liquid) is 95.23 ± 4.8 kPa; in data set [1] (379.75 K, Liquid) it was 95.76 ± 4.8 kPa. The refractive index in data set [2] stood at 1.3939 ± 0.001.

`CCC(C)O` (stereo not drawn) [butan-2-ol]: in data set [1] (Liquid), the mass density was found to be 802.4 ± 2.1 kg/m3. The “vapor or sublimation pressure” value was 95.23 ± 4.8 kPa in data set [1] (371.15 K, Liquid) and 95.76 ± 4.8 kPa in data set [1] (371.35 K, Liquid). In data set [2], the refractive index is given as 1.3953 ± 0.001.

`CC(C)(C)O` [2-methylpropan-2-ol]: the mass density in data set [1] (Liquid) stood at 781.2 ± 2 kg/m3. For the same compound, the “vapor or sublimation pressure” value came out at 95.23 ± 4.8 kPa in data set [1] (354.05 K, Liquid) and 95.76 ± 4.8 kPa in data set [1] (354.15 K, Liquid). Besides, the refractive index in data set [2] amounted to 1.3852 ± 0.001.

The values above are taken from the NIST ThermoML archive (doi:10.1016/j.fluid.2006.03.018).
